Values of other authors, collected in patent US20200367542A1, “AROMA COMPOSITION” (SYMRISE AG, priority 2017, published 2020).

What was measured:
[1] = purity>90%, in soft drinks
[2] = J. Chem. Senses 1979, 4(1), 35-47

| Structure (SMILES) | Concentration to achieve a sweetness corresponding to a concentration of sucrose of 10% by weight [1] | Taste described in the publication [2] |
| --- | --- | --- |
| C=C1C[C@@]23CC[C@H]4[C@@](C)(CCC[C@@]4(C)C(=O)O[C@@H]4O[C@H](CO)[C@@H](O)[C@H](O)[C@H]4O)[C@@H]2CC[C@]1(O[C@@H]1O[C@H](CO)[C@@H](O)[C@H](O[C@@H]2O[C@H](CO)[C@@H](O)[C@H](O)[C@H]2O)[C@H]1O[C@@H]1O[C@H](CO)[C@@H](O)[C@H](O)[C@H]1O)C3 [rebaudioside A] | 400-600 ppm |  |
| COc1ccc(CCC(=O)c2c(O)cccc2O)cc1O [dihydrochalcone (3)] |  | tasteless |
| COc1ccc(CCC(=O)c2ccccc2O)cc1O [dihydrochalcone (2)] |  | intensively sweet tasting |
